Where two headings read alike, the source gives them in different places.
How the values were obtained:
Type in all cases: cell-based, human
[1] = tested on: Target C; assay: HiBiT protein abundance assay, Target C (Promega Nano-Glo HiBiT Lytic Detection System, knock-in K562 cell line); details: Homo sapiens, K562, 24 h, HiBiT K562 cell line, 24 hours, top dose 10 μM; read-out: Effect on protein abundance, Target C (IC50 category)
How it was run: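 HiBiT knock-in K562 cells (10,000/well) were treated for 24 h at 37 °C with a 10-point 3-fold dilution series, top final concentration 10 μM, DMSO ≤0.25%. Lytic HiBiT luminescence was read, normalized to unmodified K562 and DMSO-treated controls, and IC50 was interpolated from a four-parameter logistic fit.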

[2] = tested on: MYB; assay: HiBiT protein abundance assay, MYB HiBiT K562 cell line; details: HiBiT K562 cell line, 24 hours, top dose 10 μM; read-out: Effect on protein abundance, MYB (IC50 category)
How it was run: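 Endogenous targets in K562 knock-in lines carried a HiBiT tag and were treated for 24 h at 37 °C with 10-point 3-fold dilutions (top 10 μM final, DMSO ≤0.25%). Abundance was read as lytic Nano-Glo HiBiT luminescence. IC50 came from a four-parameter logistic fit of normalized response.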

[3] = tested on: MYB mRNA; assay: RT-qPCR splicing assay, MYB canonical junction (CJ) and alternative junction (AJ) mRNA; details: Homo sapiens; for AC50: increase in MYB alternative junction (AJ) mRNA, read-out: MYB AJ AC50
How it was run: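 Following a 24-hour incubation of A673 or K562 cells with serially diluted compound (3-fold steps, highest final 10 uM), the lysates undergo cDNA synthesis plus qPCR. Canonical and alternative junctions are each quantified against PPIA, GAPDH or GUSB.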

[4] = canonical junction qPCR panel, Table 5, read-out: MYB (decrease in CJ mRNA levels, IC50)
[5] = decrease in MYB canonical junction (CJ) mRNA, RT-qPCR, read-out: MYB CJ IC50

Row | SMILES | IC50 [1] [µM] | IC50 [2] [µM] | IC50 [3, 4] [µM] | IC50 [3, 5] [µM] | AC50 ([3]; RT-qPCR) [µM]
1 | Cc1c(O)c(-c2ncc3c(=O)n([C@@H]4C[C@H]5CC[C@@H](C4)N5)ccc3n2)cc2cn(C)nc12 [Compound 1429, 6-[(1S,5R)-8-azabicyclo[3.2.1]octan-3-yl]-2-(6-hydroxy-2,7-dimethyl-indazol-5-yl)pyrido[4,3-d]pyrimidin-5-one] | 0.1 to 1 | < 0.1 | < 0.1 | < 0.1 | < 0.1
2 | Cc1c(O)c(-c2ncc3c(=O)n([C@H]4CCNC(C)(C)C4)ccc3n2)cc2cn(C)nc12 [Compound 1436] | 0.1 to 1 | < 0.1 | < 0.1 | < 0.1 | < 0.1
3 | Cc1c(O)c(-c2ncc3c(=O)n([C@H]4CCN[C@@H](C)C4)ccc3n2)cc2cn(C)nc12 [Compound 1441, 2-(6-hydroxy-2,7-dimethyl-indazol-5-yl)-6-(2-methyl-4-piperidyl)pyrido[4,3-d]pyrimidin-5-one] | 0.1 to 1 | < 0.1 | < 0.1 | < 0.1 | < 0.1
4 | Cc1c(O)c(-c2ncc3c(=O)n([C@@H]4C[C@H]5C[C@@H]4CN5)ccc3n2)cc2cn(C)nc12 [Compound 1445, 6-[(1R,4R,5R)-2-azabicyclo[2.2.1]heptan-5-yl]-2(6-hydroxy-2,7-dimethyl-indazol-5-yl)pyrido[4,3-d]pyrimidin-5-one] | > 10 | 1 to 10 | 1 to 10 | > 10 | 1 to 10
5 | Cc1c(O)c(-c2ccc3c(=O)n([C@@H]4CCNC4)ccc3n2)cc2cn(C)nc12 [Compound 1450, 2-(6-hydroxy-2,7-dimethyl-indazol-5-yl)-6-[(3R)-pyrrolidin-3-yl]-1,6-naphthyridin-5-one] | 1 to 10 | 0.1 to 1 | 0.1 to 1 | 0.1 to 1 | 0.1 to 1
6 | Cn1cc2cc(-c3ccc4c(=O)n([C@@H]5CCNC5)ccc4n3)c(O)c(F)c2n1 [Compound 1452, 2-(7-fluoro-6-hydroxy-2-methyl-indazol-5-yl)-6-[(3R)-pyrrolidin-3-yl]-1,6-naphthyridin-5-one] | 0.1 to 1 | 0.1 to 1 | < 0.1 | 0.1 to 1 | < 0.1
7 | Cc1c(O)c(-c2ncc3c(=O)n(C4C[C@H](C)N[C@@H](C)C4)ccc3n2)cc2cn(C)nc12 (stereo partly drawn) [Compound 1455, 6-[(2S,6S)-2,6-dimethyl-4-piperidyl]-2-(6-hydroxy-2,7-dimethyl-indazol-5-yl)pyrido[4,3-d]pyrimidin-5-one] | 0.1 to 1 | < 0.1 | < 0.1 | < 0.1 | < 0.1
8 | Cc1cn2cc(-c3cc(F)c4c(=O)n([C@@H]5CNC[C@H]5F)ccc4c3)cc(F)c2n1 [Compound 1456] | > 10 | 1 to 10 | 0.1 to 1 | 0.1 to 1 | 0.1 to 1
9 | Cc1cn2cc(-c3ncc4c(=O)n([C@@H]5CCNC6(CC6)C5)ccc4n3)cc(F)c2n1 [Compound 1457, 6-[(7R)-4-azaspiro[2.5]octan-7-yl]-2-(8-fluoro-2-methyl-imidazo[1,2-a]pyridin-6-yl)pyrido[4,3-d]pyrimidin-5-one] | 1 to 10 | 0.1 to 1 | 0.1 to 1 | 0.1 to 1 | 0.1 to 1

The next lines start with results.

Row | IC50 [1] [µM] | IC50 [2] [µM] | IC50 [3, 4] [µM] | IC50 [3, 5] [µM] | SMILES | AC50 ([3]; RT-qPCR) [µM]
10 | 1 to 10 | 0.1 to 1 | 1 to 10 | 1 to 10 | Cc1c(O)c(-c2ncc3c(=O)n([C@H]4C[C@@H](N)C4)ccc3n2)cc2cn(C)nc12 [Compound 1431, 6-((1s,3s)-3-aminocyclobutyl)-2-(6-hydroxy-2,7-dimethyl-2H-indazol-5-yl)pyrido[4,3-d]pyrimidin-5(6H)-one] | 1 to 10
11 | 1 to 10 | 0.1 to 1 | 0.1 to 1 | 0.1 to 1 | Cc1c(O)c(-c2ncc3c(=O)n([C@H]4C[C@H](N)C4)ccc3n2)cc2cn(C)nc12 [Compound 1432, 6-((1r,3r)-3-aminocyclobutyl)-2-(6-hydroxy-2,7-dimethyl-2H-indazol-5-yl)pyrido[4,3-d]pyrimidin-5(6H)-one] | 0.1 to 1
12 | 1 to 10 | 0.1 to 1 | 0.1 to 1 | 0.1 to 1 | Cc1c(O)c(-c2ncc3c(=O)n([C@@H]4CCN[C@H](C)C4)ccc3n2)cc2cn(C)nc12 [Compound 1434, 2-(6-hydroxy-2,7-dimethyl-indazol-5-yl)-6-(2-methyl-4-piperidyl)pyrido[4,3-d]pyrimidin-5-one] | 0.1 to 1
13 | 1 to 10 | 0.1 to 1 | 0.1 to 1 | 0.1 to 1 | Cc1cn2nc(-c3ccc4c(=O)n([C@H]5CCNC5)ccc4n3)cc(C)c2n1 [Compound 1437, 2-(2,8-dimethylimidazo[1,2-b]pyridazin-6-yl)-6-[(3S)-pyrrolidin-3-yl]-1,6-aphthyridin-5-one] | 0.1 to 1
14 | 1 to 10 | 0.1 to 1 | 0.1 to 1 | 0.1 to 1 | Cc1cn2nc(-c3ccc4c(=O)n([C@@H]5CCNC5)ccc4n3)cc(C)c2n1 [Compound 1438, 2-(2,8-dimethylimidazo[1,2-b]pyridazin-6-yl)-6-[(3R)-pyrrolidin-3-yl]-1,6-naphthyridin-5-one] | 0.1 to 1
15 | 0.1 to 1 | < 0.1 | 0.1 to 1 | < 0.1 | Cc1c(O)c(-c2ncc3c(=O)n(C4CCNC(C)(C)C4)ccc3n2)cc2cn(C)nc12 (stereo not drawn) [Compound 1442] | 0.1 to 1
16 | 0.1 to 1 | < 0.1 | 0.1 to 1 | 0.1 to 1 | Cc1c(O)c(-c2ccc3c(=O)n(C4CC(C)NC(C)C4)ccc3n2)cc2cn(C)nc12 (stereo not drawn) [Compound 1447, 6-(2,6-dimethyl-4-piperidyl)-2-(6-hydroxy-2,7-dimethyl-indazol-5-yl)-1,6-naphthyridin-5-one] | 0.1 to 1
17 | 0.1 to 1 | 0.1 to 1 | 0.1 to 1 | 0.1 to 1 | Cc1cn2cc(-c3cc(O)c4c(=O)n(C5CCNCC5)ccc4n3)cc(F)c2n1 [Compound 1448] | 0.1 to 1
18 | 1 to 10 | 0.1 to 1 | 0.1 to 1 | 0.1 to 1 | Cc1c(O)c(-c2ccc3c(=O)n([C@H]4CCNC4)ccc3n2)cc2cn(C)nc12 [Compound 1449, 2-(6-hydroxy-2,7-dimethyl-indazol-5-yl)-6-[(3S)-pyrrolidin-3-yl]-1,6-naphthyridin-5-one] | 0.1 to 1
19 | 0.1 to 1 | 0.1 to 1 | < 0.1 | 0.1 to 1 | Cn1cc2cc(-c3ccc4c(=O)n([C@H]5CCNC5)ccc4n3)c(O)c(F)c2n1 [Compound 1451, 2-(7-fluoro-6-hydroxy-2-methyl-indazol-5-yl)-6-[(3S)-pyrrolidin-3-yl]-1,6-naphthyridin-5-one] | < 0.1
20 | > 10 | 0.1 to 1 | 0.1 to 1 | 1 to 10 | Cc1c(O)c(-c2ncc3c(=O)n([C@@H]4C[C@@H](C)N[C@@H](C)C4)ccc3n2)cc2cn(C)nc12 [Compound 1453, 6-[(2S,6R)-2,6-dimethyl-4-piperidyl]-2-(6-hydroxy-2,7-dimethyl-indazol-5-yl)pyrido[4,3-d]pyrimidin-5-one] | 0.1 to 1
21 | 1 to 10 | 0.1 to 1 | 0.1 to 1 | 0.1 to 1 | Cc1c(O)c(-c2ncc3c(=O)n(C4C[C@@H](C)N[C@H](C)C4)ccc3n2)cc2cn(C)nc12 (stereo partly drawn) [Compound 1454, 6-[(2R,6R)-2,6-dimethyl-4-piperidyl]-2-(6-hydroxy-2,7-dimethyl-indazol-5-yl)pyrido[4,3-d]pyrimidin-5-one] | 0.1 to 1

— patent US20250332173A1, “COMPOUNDS AND METHODS FOR MODULATING NUCLEIC ACID SPLICING” (REMIX THERAPEUTICS INC., priority 2021, published 2025)
